# Reference: US11931347B2, “Method of screening for agents for differentiating stem cells” (MINERVA BIOTECHNOLOGIES CORPORATION, priority 2015, dated 2024)
# How the values were obtained:
# [1] = tested on: human naïve state stem cells; test: stem cell drug screening assay on naïve state stem cells; assay type: cell-based; details: 6 uM, 3 days
# Method: The stem cell screening assay, was performed in both the presence and absence of the stem cell growth factors: NME7AB for growing naïve stem cells or FGF for growing primed stem cells. If the cognate growth factor was present, then the biological or small molecule would have to compete away the growth factor to get an effect. Therefore, we expected to see more of an effect when the growth factor, FGF for primed stem cells or NME7AB or NME1 dimers for naïve stem cells, was absent. The effect of the compounds on stem cells was visually determined and compounds were ranked 0-4, with 4 being the greatest effect and 0 being no observable effect. The major effect that was observed was a change from pluripotent stem cell morphology, which is a cobblestone pattern of small round cells with a large nucleus to cytoplasm ratio, to that of differentiating stem cells, which are elongated, large and flattened cells with a smaller nucleus to cytoplasm ratio. […] The compounds were added to a final concentration of 6 uM to either naïve state stem cells or primed state stem cells. In this particular case, the naïve state stem cells were maintained in a naïve state by culturing in a media containing NME7AB or NME1 dimers. However, other methods such as 2i and 5i (Silva et al., 2008, Nichols and Smith, 2009, Theunissen et al., 2014)] can be used to maintain stem cells in a more naïve state. In this case primed state stem cells were cultured in bFGF over a layer of MEFs, although it is known that any bFGF containing media will maintain stem cells in the primed state.
# Stem cells whether embryonic or induced pluripotent stem (iPS) cells were cultured in a minimal, serum-free media that contained human recombinant NME7AB at a concentration of 2-32 nM wherein 4-8 nM is preferred and 4 nM is more preferred. To facilitate surface attachment, cell culture plates were coated with an anti-MUC1* monoclonal antibody called MN-C3 or C3 or MN-C8 at a concentration of 2-100 ug/mL coating solution, wherein 3-50 ug/mL is preferred and 6-12.5 ug/mL is more preferred. In these experiments, 12.5 ug/mL of MN-C3 was used. Antibody coated plates were incubated at 4 degrees C. overnight prior to plating stem cells. A Rho kinase I inhibitor was added to enhance surface attachment. In some cases, NME7AB was substituted with human recombinant NME1 dimers which also induce stem cells to revert to a naïve-like state.
# Human naïve state and primed stem cells were cultured in parallel for at least 5 passages to guarantee normal differentiation-free growth. The stem cells were plated in 12-well cell culture plates with 50,000 cells per well. Cells were cultured in their respective media, either bFGF media or NME7AB media for 24 hours. Media was then removed and replaced with media devoid of bFGF or NME7AB, when indicated. Agents being tested for their ability to induce differentiation of naïve stem cells were added to the media at the concentrations indicated. After 72 hours, photographs were taken see FIGS. 1-10.
# Human naïve state and primed stem cells were cultured in parallel for at least 5 passages to guarantee normal differentiation-free growth. The stem cells were plated in 12-well cell culture plates with 50,000 cells per well. Cells were cultured in their respective media, either bFGF media or NME7AB media for 24 hours. Media was then removed and replaced with media devoid of bFGF or NME7AB. […] Media was changed after 48 hours and replaced with fresh media containing the BRD4 inhibitors. After 4 days the experiment was stopped. Photographs were taken and cell pellets collected for further analysis, see FIGS. 11-16.
# [2] = tested on: MUC1* positive cancer cells; test: cancer cell growth in vitro (previously shown); assay type: cell-based
# [3] = tested on: T47D breast cancer cells; test: cancer cell proliferation assay (Calcein live cell stain); assay type: cell-based, human; details: live cell Calcein stain, 96 hours (FIG. 113)
# Method: These analogs of MN1194 and 1186 were also tested in a cell growth assay (FIGS. 107A1-107H6 and FIG. 108A1-108H6, respectively). In this experiment, both parent compound and analogs thereof were added to normal cell culture media to final concentrations of 40 uM, 20 uM, 10 uM, 5 uM or 2.5 uM. For comparison, previously known cancer cell migration inhibitors SU11274 and MN1204 were included in the same experiment. […] Relative cell proliferation is quantified on a standard plate reader that reads the fluorescence of the Calcein that is taken up by live cells.
# Small molecule inhibition of cancer cell proliferation studies were also performed on several cancer sub-types. […] The small molecules of the invention had the most robust effect on T47D breast cancer cells, which are highly positive for MUC1* growth factor receptor, and its activating ligands NME7AB and NME7-X1.
# For the cancer cell proliferation experiment cancer cells were plated at constant densities (6000 cells/well) into a 96-well White-walled/Clear-bottom Tissue Culture Treated plate (Corning Incorporated, Big Flats, N.Y.). Small molecule analogs are added at T=24 hours in media with 2% FBS. Following the addition of the small molecules, the cells remain untouched for 120 hours with visual confirmations/inspections at 24, 48, 72 and 96 hours post plating. At the 120 hour mark a calcein fluorescence assay (Thermo Fisher Scientific, Waltham, Mass.) is performed on the plate. Calcein fluorescence (final concentration 0.5 uM) is used to assess cell viability. Cancer cell fluorescence is measured in a TECAN SAFIRE^2 spectrophotometer plate reader. The plate is then imaged using an Olympus IX71 fluorescence imaging microscope and montage of the resulting images are assembled using ImageJ.
# [4] = tested on: SK-OV-3 MUC1* positive ovarian cancer cells; test: cancer cell proliferation assay (Calcein); assay type: cell-based; details: 96 hours (FIG. 112)
# Method: Small molecule inhibition of cancer cell proliferation studies were also performed on several cancer sub-types. […] The small molecules of the invention had the most robust effect on T47D breast cancer cells, which are highly positive for MUC1* growth factor receptor, and its activating ligands NME7AB and NME7-X1. […] For the cancer cell proliferation experiment cancer cells were plated at constant densities (6000 cells/well) into a 96-well White-walled/Clear-bottom Tissue Culture Treated plate (Corning Incorporated, Big Flats, N.Y.). Small molecule analogs are added at T=24 hours in media with 2% FBS. […] […] Calcein fluorescence (final concentration 0.5 uM) is used to assess cell viability. Cancer cell fluorescence is measured in a TECAN SAFIRE^2 spectrophotometer plate reader. The plate is then imaged using an Olympus IX71 fluorescence imaging microscope and montage of the resulting images are assembled using ImageJ.
# [5] = tested on: OV-90 MUC1* negative ovarian cancer cells; test: cancer cell proliferation assay (Calcein); assay type: cell-based; details: 96 hours (FIG. 114)
# Method: Small molecule inhibition of cancer cell proliferation studies were also performed on several cancer sub-types. […] The small molecules of the invention had the most robust effect on T47D breast cancer cells, which are highly positive for MUC1* growth factor receptor, and its activating ligands NME7AB and NME7-X1. […] For the cancer cell proliferation experiment cancer cells were plated at constant densities (6000 cells/well) into a 96-well White-walled/Clear-bottom Tissue Culture Treated plate (Corning Incorporated, Big Flats, N.Y.). Small molecule analogs are added at T=24 hours in media with 2% FBS. Following the addition of the small molecules, the cells remain untouched for 120 hours with visual confirmations/inspections at 24, 48, 72 and 96 hours post plating. At the 120 hour mark a calcein fluorescence assay (Thermo Fisher Scientific, Waltham, Mass.) is performed on the plate. Calcein fluorescence (final concentration 0.5 uM) is used to assess cell viability. Cancer cell fluorescence is measured in a TECAN SAFIRE^2 spectrophotometer plate reader. The plate is then imaged using an Olympus IX71 fluorescence imaging microscope and montage of the resulting images are assembled using ImageJ.
# [6] = tested on: E-cadherin, fibronectin, vimentin and NF1 expression in naïve stem cells; test: RT-PCR of differentiation markers in treated naïve stem cells; assay type: cell-based, human
# Method: FIG. 161 is a graph of RT-PCR measurement of naïve stem cells that have been treated with compounds of the invention. The genes whose expression is measured are E-cadherin, which goes […] as cells undergo epithelial to mesenchymal transition, fibronectin and vimentin, which both increase as stem cells initiate differentiation and NF1, which is one of the first genes to increase when stem cells begin to differentiate down the neural lineage. […] E-cadherin is the opposite; it […] as cells become cancerous. […] Expression of metastatic marker E-cadherin was reduced and expression of differentiation markers fibronectin, vimentin and NF1 were increased (FIG. 162-FIG. 163). Novel compounds of the invention are highly specific. […] Although we discovered that NME1 dimers, NME7AB and NME7-X1 are all activating ligands of the MUC1* growth factor receptor and they bind to its extracellular domain, we have developed ample evidence that both NME7AB and NME7-X1 have other binding partners and can exert oncogenic effects, independent of MUC1*.
# [7] = tested on: NME7AB-induced transition of regular cancer cells to metastatic cancer cells; test: transition of regular cancer cells to metastatic cancer cells (previously shown); assay type: cell-based
Molecule,"effect on naïve stem cell pluripotency, growth or differentiation (visually determined) [1]",inhibition of cancer cell growth in vitro [2],inhibition of growth of T47D cells [3],effect on growth of SK-OV-3 cells [4],effect on growth of OV-90 cells [5],up-regulation of markers of differentiation in naïve stem cells (RT-PCR) [6],inhibition of transition of regular cancer cells to metastatic cancer cells [7]
COC(=O)c1ccc(C2c3[nH]c4ccccc4c3CCN2C(=O)c2cccc(Cl)c2)cc1 (centres unmarked) [MN0642],induced differentiation,inhibit the growth of cancer cells in vitro,,,,,
Cc1[nH]c(/C=C2\C(=O)Nc3ccc(S(=O)(=O)N(C)c4cccc(Cl)c4)cc32)c(C)c1C(=O)N1CCN(C)CC1 [SU11274],,,inhibited growth,no effect,neither the compounds of the invention nor JQ1 or SU11274 had any apparent effect,did not cause up-regulation of markers of differentiation,
"FLR peptide: synthetic peptide corresponding to the extracellular domain of MUC1*, PSMGFR, SEQ ID NO:3 (GTINVHDVETQFNQYKTEAASRYNLTISDVSVSDVPFPFSAQSGA; the extracellular domain of Native Primary Sequence of the MUC1 Growth Factor Receptor (nat-PSMGFR - an example of “PSMGFR”))",induced differentiation,,,,,,inhibit the transition of regular cancer cells to metastatic cancer cells
